Measurements taken from patent publication US4837228A, “Antiinflammatory and antimicrobial compounds and compositions” (The University of Mississippi, priority 1982, dated 1989).
≈ marks a conversion by molar mass, not a printed value. Read-outs that look alike come from different tables or passages of the source.

Experiments:
Type in all cases: cell-based
[1] = tested on: erythrocyte (heat-induced hemolysis); experiment: erythrocyte membrane stabilization assay (heat-induced erythrocyte hemolysis)
Summary of the method: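 In vitro anti-inflammatory screen measuring stabilization of erythrocytes against heat-induced hemolysis, using 40% or 20% RBC suspensions. Compounds dissolved in physiologic saline or suspended in 2% ethanol in saline, pH adjusted to 7.4.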

[2] = tested on: Bacillus subtilis; experiment: agar well diffusion assay, B. subtilis; details: from edge of agar well
Experimental: Both qualitative and quantitative screens were performed. Qualitative screening was accomplished using the agar well diffusion assay technque while quantitative screening was accomplished by the two-fold (broth) serial dilution method to determine the minimum inhibitory concentration (MIC). Innoculation was accomplished with one loop-full of a 1:10 dilution of the 24-hour-old broth culture, (fungal cultures and M.smegmatis more often required 48 to 72 hours of incubation) of the test organisms in sterile water. Streptomycin sulfate was used as a positive control for antibacterial activity while amphitericin B was used as an antifungal positive control. Organisms utilized in the screens included gram-positive, gram-negative, and acid-fast bacteria as well as different types of fungi. […] An intermediate type activity is seen where R is hydrogen. However, where R is lengthened up to C15 a decrease in activity was noted. Total saturation of the two double bonds in the compounds having a methyl side chain lead, in most cases, to an increase in both antifungal and antibacterial activity.

[3] = tested on: Mycobacterium smegmatis; experiment: MIC, two-fold (broth) serial dilution, M. smegmatis; details: Mycolicibacterium smegmatis, read-out: MIC
Summary of the method: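 Agar well diffusion gave qualitative activity, and two-fold broth serial dilution gave MIC. Inoculum was one loop of a 1:10 dilution of 24-h broth culture; fungi and M. smegmatis often needed 48–72 h incubation. Streptomycin sulfate and amphotericin B served as antibacterial and antifungal controls.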

In the case of CCCCCc1cc(O)c2c(c1)OC(C)(CCC=C(C)C)C=C2 (centres unmarked) [CBC (I), 2-methyl-2(4'methyl-pent-3'-enyl)-5-hydroxy-7-pentyl chromene], the inhibition at 12.5 µM ([1]; Erythrocyte, Table 8, 1.25 × 10^-5 M) is reported as 55%, the inhibition at 25 µM ([1]; Erythrocyte, Table 8, 2.5 × 10^-5 M, read-out: inhibition of heat-induced erythrocyte hemolysis) is reported as 67% and the inhibition at 50 µM ([1]; Erythrocyte, Table 8, 5 × 10^-5 M) is reported as 79%. For the same compound, the inhibition at 100 µM ([1]; Erythrocyte, Table 9 Test 2 (40% RBC), 1.0 × 10^-4 M, read-out: percent inhibition of heat-induced erythrocyte hemolysis) was 40%, the inhibition at 20 µM ([1]; Erythrocyte, Table 9 Test 2 (40% RBC), 2.0 × 10^-5 M, read-out: percent inhibition of heat-induced erythrocyte hemolysis) was 26% and the inhibition at 20 µM ([1]; Erythrocyte, Table 9 Test 3 (20% RBC), 2.0 × 10^-5 M, read-out: percent inhibition of heat-induced erythrocyte hemolysis) was 26%. For the same compound, the inhibition at 2 µM ([1]; Erythrocyte, Table 9 Test 3 (20% RBC), 2.0 × 10^-6 M, read-out: percent inhibition of heat-induced erythrocyte hemolysis) was 7%, the inhibition at 100 µM ([1]; Erythrocyte, read-out: inhibition of heat-induced erythrocyte hemolysis, Table 8, 1 × 10^-4 M) was 98% and the inhibition at 100 µM ([1]; Erythrocyte, read-out: percent inhibition of heat-induced erythrocyte hemolysis, Table 9 Test 3 (20% RBC), 1.0 × 10^-4 M) was 37%. For the same compound, the inhibition at 20 µM ([1]; Erythrocyte, 2×10^-5 M, read-out: inhibition of heat-induced red cell hemolysis) was 26%, the inhibition at 100 µM ([1]; Erythrocyte, 10^-4 M, read-out: inhibition of heat-induced red cell hemolysis) was 35% and the “percent inhibition of heat-induced erythrocyte hemolysis” value ([1]; Table 9 Test 3 (20% RBC), 1.0 × 10^-4 M, 100 µM, listed as Cannabichromene) was 33%. The “times more protective of red cell membranes than an equivalent amount of PBZ” value ([1]; actual activity, may have been) was 3 to 30 times, the “width of inhibition zone” value ([2]; 24 hr) was 8.0 mm and the “width of inhibition zone” value ([2]; 48 hr) was 5.0 mm. For the same compound, the MIC ([3]; 24 h) was 12.5 µg/mL (≈ 39.7 µM) and the MIC ([3]; 48 h) was 25 µg/mL (≈ 79.5 µM).
